# According to US11780851B2, “LRRK2 inhibitors” (H. Lundbeck A/S, priority 2021, dated 2023):
# pIC50: −log10 of the molar value.
# Experiments:
# LRRK2 WT = molecular target: T1, LRRK2 WT (Homo sapiens, UniProt Q5S007); assay: LRRK2 wild-type kinase activity assay (LanthaScreen TR-FRET); format: biochemical; conditions: 1 nM LRRK2 WT, 1.3 mM ATP, 3.5 h at 30° C.; n≥2 tests
# T1 construct: comprises residue 970 to 2527 of the full length human wild-type LRRK2 kinase; purchased Invitrogen (Life Technologies Corporation)
# T1 sequence (Q5S007 970-2527): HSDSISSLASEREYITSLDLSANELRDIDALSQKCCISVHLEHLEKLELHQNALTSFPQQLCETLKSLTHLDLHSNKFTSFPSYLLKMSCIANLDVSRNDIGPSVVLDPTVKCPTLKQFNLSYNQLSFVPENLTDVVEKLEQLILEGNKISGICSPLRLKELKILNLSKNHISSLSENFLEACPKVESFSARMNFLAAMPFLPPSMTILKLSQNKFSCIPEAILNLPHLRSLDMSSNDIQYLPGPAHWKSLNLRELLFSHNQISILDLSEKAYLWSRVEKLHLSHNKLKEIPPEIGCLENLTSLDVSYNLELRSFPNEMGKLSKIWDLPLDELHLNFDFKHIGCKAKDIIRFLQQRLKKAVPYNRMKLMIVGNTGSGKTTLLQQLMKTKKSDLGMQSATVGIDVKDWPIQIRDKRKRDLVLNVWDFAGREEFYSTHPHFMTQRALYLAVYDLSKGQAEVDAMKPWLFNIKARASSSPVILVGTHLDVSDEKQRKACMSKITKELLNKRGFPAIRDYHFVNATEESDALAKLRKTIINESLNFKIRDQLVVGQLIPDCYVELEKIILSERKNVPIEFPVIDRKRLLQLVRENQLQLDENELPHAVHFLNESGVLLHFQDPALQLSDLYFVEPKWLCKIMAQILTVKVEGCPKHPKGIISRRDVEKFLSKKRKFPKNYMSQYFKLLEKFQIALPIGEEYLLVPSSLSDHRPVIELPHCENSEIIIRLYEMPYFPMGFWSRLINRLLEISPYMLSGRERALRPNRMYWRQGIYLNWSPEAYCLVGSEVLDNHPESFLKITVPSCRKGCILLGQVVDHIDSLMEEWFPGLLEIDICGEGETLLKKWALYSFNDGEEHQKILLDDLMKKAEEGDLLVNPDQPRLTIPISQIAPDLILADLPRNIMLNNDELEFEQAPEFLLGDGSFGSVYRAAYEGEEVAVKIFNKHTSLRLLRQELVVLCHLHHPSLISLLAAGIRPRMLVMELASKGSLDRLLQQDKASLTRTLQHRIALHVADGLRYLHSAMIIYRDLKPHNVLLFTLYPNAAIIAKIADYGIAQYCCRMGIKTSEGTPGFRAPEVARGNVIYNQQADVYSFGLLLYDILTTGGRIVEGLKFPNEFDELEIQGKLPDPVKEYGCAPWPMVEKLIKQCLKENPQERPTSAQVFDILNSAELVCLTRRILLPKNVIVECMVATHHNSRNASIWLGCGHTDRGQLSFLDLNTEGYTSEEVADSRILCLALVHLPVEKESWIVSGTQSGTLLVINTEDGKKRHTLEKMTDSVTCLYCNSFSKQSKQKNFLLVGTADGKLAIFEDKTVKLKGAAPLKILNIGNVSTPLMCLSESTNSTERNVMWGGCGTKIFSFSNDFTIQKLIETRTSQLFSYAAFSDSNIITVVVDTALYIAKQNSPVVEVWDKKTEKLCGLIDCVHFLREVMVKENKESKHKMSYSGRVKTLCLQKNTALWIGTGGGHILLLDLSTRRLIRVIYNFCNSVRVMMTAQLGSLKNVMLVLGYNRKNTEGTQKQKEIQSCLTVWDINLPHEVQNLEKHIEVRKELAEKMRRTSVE
# Procedure: (§1) LRRK2 kinase activity was measured using a LanthaScreen kinase activity assay available from Invitrogen (Life Technologies Corporation). The assay is a homogeneous time resolved-fluorescence resonance energy transfer (TR-FRET) assay that measures phosphorylation of a fluorescein-labelled peptide substrate Fluorescein-ERM LRRKtide obtainable from Life Technologies Corporation as a result of LRRK2 kinase activity. The phosphorylated peptide is recognized by a terbium-labelled phospho-specific anti-LRRKtide antibody (pLRRKtide antibody), obtainable from Life Technologies Corporation and, subsequently, the phosphorylated LRRKtide can be quantified by the extent of TR-FRET between the terbium donor and fluorescein acceptor. The LRRK2 kinase was obtained from Invitrogen (Life Technologies Corporation) and comprises residue 970 to 2527 of the full length human wild-type LRRK2 kinase, or a similar sequence with the G2019S mutation. As discussed above, this mutation increases the kinase activity relative to the wild type. The kinase reactions were performed in a 20 μL volume in 384-well plates. […] The mixture was further incubated for 30 minutes at RT. […] The measurement was repeated 30 times for fluorescein and 30 times for terbium emission with a 1000 μs time window between repeats. TR-FRET measurements were performed on a Biotek Synergy plate. The TR-FRET signal was calculated as the emission-ratio at 520 nm over 495 nm. The TR-FRET ratio readout for test compounds was normalized to 0% inhibition corresponding to TR-FRET ratio measured in control wells with no inhibition of the kinase activity and 100% inhibition corresponding to TR-FRET ratio measured in control wells with inhibitor. […] C is the IC50 value and D is the Hill slope coefficient. IC50 estimates were obtained from independent experiment and the logarithmic average was calculated.
# LRRK2 G2019S = molecular target: T2, LRRK2 G2019S (Homo sapiens, UniProt Q5S007, G2019S); assay: LRRK2 G2019S kinase activity assay (LanthaScreen TR-FRET); format: biochemical; conditions: 250 pM LRRK2 G2019S, 1.3 mM ATP, 3 h at 30° C.; n≥2 tests
# T2 construct: purchased Invitrogen (Life Technologies Corporation)
# T2 sequence (Q5S007 970-2527 G2019S): as the sequence (Q5S007 970-2527) above, with G1050S counted along it
# Procedure: as §1
SMILES,pIC50 (LRRK2 WT),pIC50 (LRRK2 G2019S)
"Cc1c2c(nn1[C@@H]1CCOC[C@@H]1C)OCCCn1nc(Cl)c3cnc(nc31)N2 (single isomer, unassigned) [Example 21, 8-Chloro-3-methyl-2-((3R,4S) or (3S,4R) or (3S,4S) or (3R,4R)-3-methyltetrahydro-2H-pyran-4-yl)-2,4,12,13-tetrahydro-11H-5,7-(azenometheno)dipyrazolo[3,4-b:5′,1′-g][1]oxa[4,6,8]triazacycloundecine]",8.00,8.43
"Cc1c2c(nn1[C@@H]1CCOC[C@@H]1C)OCCCn1nc(Cl)c3cnc(nc31)N2 (single isomer, unassigned) [Example 22, 8-Chloro-3-methyl-2-((3R,4S) or (3S,4R) or (3S,4S) or (3R,4R)-3-methyltetrahydro-2H-pyran-4-yl)-2,4,12,13-tetrahydro-11H-5,7-(azenometheno)dipyrazolo[3,4-b:5′,1′-g][1]oxa[4,6,8]triazacycloundecine]",8.00,8.46
"Cc1c2c(nn1[C@@H]1CC1(F)F)OCCCn1nc(Cl)c3cnc(nc31)N2 (single isomer, unassigned) [Example 39, (−)-(R) or (S)-8-Chloro-2-(2,2-difluorocyclopropyl)-3-methyl-2,4,12,13-tetrahydro-11H-5,7-(azenometheno)dipyrazolo[3,4-b:5′,1′-g][1]oxa[4,6,8]triazacycloundecine]",7.72,8.11
"Cc1c2c(nn1[C@H]1CCOC(C)(C)C1)OCCCn1nc(Cl)c3cnc(nc31)N2 (single isomer, unassigned) [Example 43, (−)-(R) or (S)-8-Chloro-2-(2,2-dimethyltetrahydro-2H-pyran-4-yl)-3-methyl-2,4,12,13-tetrahydro-11H-5,7-(azenometheno)dipyrazolo[3,4-b:5′,1′-g][1]oxa[4,6,8]triazacycloundecine]",7.77,8.28
"Cc1c2c(nn1[C@H]1CCOC[C@]1(C)F)OCCCn1nc(Cl)c3cnc(nc31)N2 (single isomer, unassigned) [Example 48, (−)-8-Chloro-2-((3R,4S) or (3S,4R)-3-Fluoro-3-methyltetrahydro-2H-pyran-4-yl)-3-methyl-2,4,12,13-tetrahydro-11H-5,7-(azenometheno)dipyrazolo[3,4-b:5′,1′-g][1]oxa[4,6,8]triazacycloundecine]",7.05,7.74

# The remaining lines, values ahead:
pIC50 (LRRK2 WT),pIC50 (LRRK2 G2019S),SMILES
7.36,7.70,"Cc1c2c(nn1[C@@H]1CCOC[C@@H]1C)OCCCn1nc(Cl)c3cnc(nc31)N2 (single isomer, unassigned) [Example 23, 8-Chloro-3-methyl-2-((3R,4S) or (3S,4R) or (3S,4S) or (3R,4R)-3-methyltetrahydro-2H-pyran-4-yl)-2,4,12,13-tetrahydro-11H-5,7-(azenometheno)dipyrazolo[3,4-b:5′,1′-g][1]oxa[4,6,8]triazacycloundecine]"
7.85,8.33,"Cc1c2c(nn1[C@@H]1CCOC[C@@H]1C)OCCCn1nc(Cl)c3cnc(nc31)N2 (single isomer, unassigned) [Example 24, 8-Chloro-3-methyl-2-((3R,4S) or (3S,4R) or (3S,4S) or (3R,4R)-3-methyltetrahydro-2H-pyran-4-yl)-2,4,12,13-tetrahydro-11H-5,7-(azenometheno)dipyrazolo[3,4-b:5′,1′-g][1]oxa[4,6,8]triazacycloundecine]"
7.72,8.28,"Cc1c2c(nn1[C@H]1CCCCOC1)OCCCn1nc(Cl)c3cnc(nc31)N2 (single isomer, unassigned) [Example 28, (+)-(R) or (S)-8-Chloro-3-methyl-2-(oxepan-3-yl)-2,4,12,13-tetrahydro-11H-5,7-(azenometheno)dipyrazolo[3,4-b:5′,1′-g][1]oxa[4,6,8]triazacycloundecine]"
